One series concerns female Wistar rats. Nature of the series: Acute carageenan paw edema model, paw volume by plethysmometer (Control 2 / Example 3). Format: in vivo. As to conditions: indomethacin 2 mg/kg oral, 30 minutes before carageenan, paw volume 2.5 hours after carageenan. The procedure: Eight female Wistar rats weighing approximately 100 grams were allowed free access to food and water. A tatoo line was inscribed onto the right rear paw just below the hair line. Initial paw volume was measured by a transducer-linked plethysmometer (Stoelting Co., Chicago, Illinois) which contained a saline solution. The instrument measures paw volumes by an electrical charge difference across two electrodes resulting from the volume displacement by the paw. A transducer corrects this charge difference into cubic centimeters of volume displaced. Following immersion of the paw in the perspex cell to the inscribed line, a direct measurement of the displacement volume was recorded. Rats were orally dosed with 2 mg/kg body weight of indomethacin in polyethylene glycol 400. At 30 minutes post treatment, rats received an injection of 0.1 ml of 1.5% carageenan in saline […] directly into the rear paw pad. The paw volume was again determined 2.5 hours after the carageenan administration. The edema intensity (EI) was calculated: [formula] and averaged for the eight rats. The paw volumes for the eight rats were averaged and the percent swelling inhibition was calculated: % swelling Reduction: [formula] […] Rats were orally dosed with the liposomes, and percent swelling reduction was calculated as in Example 2.

For series [1] the following is noted: generally shown by others, cited from earlier work; for half-lives: range for the group.
In series [2] the test system is rats (Wistar). Nature of the series: Inducing intestinal ulceration (chronic), 4-day oral dosing (Control 4). As to conditions: about 4 mg/kg daily oral over 4 days. Format: in vivo. The procedure:
Single daily oral dosages of indomethacin at about 4 mg/kg in vehicle or in monophasic vesicles were administered over 4 days. Test animals in this example were rats (Wistar). On the fifth day the full length of the intestines were excised and slit open opposite to the attached mesenteric issue. The mucosal surface was rinsed with saline, the ulcers (including perforations) were quantitated in millimeters as described about or by determination of total surface area of lesions. This was accomplished by means of a planimeter (Zidas, Carl Zeiss, West Germany) optically linked to an SR stereo dissecting microscope (Zeiss) with a draw tube attachment. In this example results were expressed as total mm² of ulcerated surface and as percent inhibition of ulceration when treatment was provided. Average values were calculated based upon a minimum of 5 animals per group from at least duplicate experiments. […] Sham vehicle, however, were nontoxic to the animals. Clearly this method is easily adaptable by those skilled in the art to other nonsteroidal anti-inflammatory therapeutic agents and other animals.

The subject of series [3] is rats (Wistar). Nature of the series: Inducing gastric ulcers (acute), oral administration (Control 3). It counts as in vivo. As to conditions: for mm Ulceration + SEM: acute oral, 4 hours. The source says:
For oral studies, it is convenient to use indomethacin but other nonsteroidal anti-inflammatory therapeutic agent can be similarly employed. This model is also useful in examining other nonsteroidal anti-inflammatory therapeutic agents and other mammals. Simply varying doses will induct gastric ulcers for other agents and mammals in this model. Unlike gastric ulcer protocols, it has been shown that for nonsteroidal anti-inflammatory effects such as indomethacin-induced intestinal lesions to occur, animals must be allowed free acces to food and water during the study.
Indomethacin at dosages between about 2 mg/kg and 10 mg/kg were given in 0.5 ml of neat PEG-400, vehicle or as incorporated into the liposomes at a 200 mg/kg dosage of phospholipid. Four hours following oral administration of test formulations, animals were sacrificed by CO₂ anoxia and the stomachs were excised. For systemically-induced gastric ulceration, dosages of PEG-400 solubilized indomethacin between 4 mg/kg and 50 mg/kg in 0.5 ml were administered subcutaneously. […] Tissue was thoroughly rinsed in saline and the inner mucosal surface was laid flat for microscopic evaluation. Visible ulcers were quantitated using a dissecting microscope (AO Optical, Buffalo, NY) equipped with an eyepiece micrometer. Results using this test were expressed in millimeters of ulceration and in percent inhibition of ulcers where treatment was effected. For all studies, a minimum of 10 animals per experimental group were employed. Experiments were conducted in triplicate, thereby representing a minimum of 30 rats per group.

The subject of a further series is male Wistar rats. Briefly: Acute ulceration after one oral dose of indomethacin, ulcer lengths counted in excised stomachs (Control 1 / Example 2). As to conditions: indomethacin 10 mg/kg, starved rats, 4 hours after dosing. It counts as in vivo. The procedure:
Twenty 225-250 g male Wistar rats were starved for 18-24 hours prior to dosing. Rats were allowed access to water throughout the study. Ten rats in the free drug control group were then administered one oral dose of indomethacin, dissolved in polyethylene glycol 400 at 7 mg/ml and administered at 10 mg/kg body weight of indomethacin.
Four hours following dosing, rats were sacrificed by carbon dioxide anoxia and their stomachs surgically removed by severing at the cardiac and pyloric sphinctors. The stomachs were opened along the lesser curve, flattened, and washed with saline. Ulcer lengths were counted under a dissecting microscope (American Optical, Buffalo, NY) equipped with an eyepiece micrometer, and lengths were summed and averaged for all animals in a single treatment group.
Ulcer protection was assessed by summing and averaging ulcer lengths (in mm) of the treated group and comparing the value to that of the group administered free drug […]. Percent ulcer inhibition was calculated by dividing the average length of ulceration of the liposome-treated group by the of the corresponding free drug group, and multiplying by 100.
The procedures and materials of Example 1 were employed using 10 mg/kg body weight of indomethacin entrapped in stable plurilamellar vesicles (SPLVs) composed of digalactosyl diglyceride; ulcer protection was assessed as in Example 1.

Another series relates to rat stomach mucosa. As to conditions: rats dosed with the prostaglandin; cited from earlier work.

With `COc1ccc2c(c1)c(CC(=O)O)c(C)n2C(=O)c1ccc(Cl)cc1` [Indomethacin in PEG-400, indomethacin], in the series with female Wistar rats, the “% SWELLING REDUCTION” value was 37.2%. The blood level half-lives result in series [1] is recorded as “under four”. Besides, the mortality rate in the series on rats (Wistar) [2] was 20-30%. Further, in the series on rats (Wistar) [3] (10 mg indomethacin/kg body weight, P.O.), the “total ulcer length, high reached in individual experiments” value is given as 45 mm. For the same compound, the “mm Ulceration + SEM” value in the series on rats (Wistar) [3] (indomethacin 2 mg/kg) was 1.1 ± 0.3 mm; with rats (Wistar) [3] (indomethacin 4 mg/kg) it was 3.4 ± 0.8 mm; with rats (Wistar) [3] (indomethacin 6 mg/kg), 9.7 ± 1.2 mm; in the series with rats (Wistar) [3] (indomethacin 8 mg/kg) it was 22.3 ± 3.4 mm; in the series with rats (Wistar) [3] (indomethacin 10 mg/kg), 23.3 ± 2.6 mm; with rats (Wistar) [3] (indomethacin 10 mg/kg, listed as indomethacin in PEG-400) it was 25 mm. Further, the “mm ULCERATION” value in the series on male Wistar rats is given as 43.9 mm. Consider `Cc1cccc(Nc2ccccc2C(=O)O)c1C` [Mefenamic acid], for which the blood level half-lives entry in series [1] is on record as “about four”. Take `CC(=O)Oc1ccccc1C(=O)O` [acetylsalicylic, Acetylsalicylic Acid (ASA)]: in series [1], the blood level half-lives result was “under four”.

On to `O=C(O)Cc1ccccc1Nc1c(Cl)cccc1Cl` [diclofenac], for which the blood level half-lives result in series [1] is given as “under four”. For the compound `O=C(O)c1cc(-c2ccc(F)cc2F)ccc1O` [diflunisal], in series [1], the half-lives entry is reported as “over ten hours to three days”. Take `CC(C(=O)O)c1cccc(Oc2ccccc2)c1` (stereo not shown) [fenoprofen]: in series [1], the blood level half-lives entry is recorded as “under four”. With `Cc1ccc(Cl)c(Nc2ccccc2C(=O)O)c1Cl` [meclofenamate], the blood level half-lives entry in series [1] is “under four”.

Consider `CCCCC1C(=O)N(c2ccccc2)N(c2ccccc2)C1=O` [phenylbutazone], for which the half-lives entry in series [1] is on record as “over ten hours to three days”. For the compound `CN1C(C(=O)Nc2ccccn2)=C(O)c2ccccc2S1(=O)=O` [piroxicam], in series [1], the half-lives result is “over ten hours to three days”. Turning to `CC1=C(CC(=O)O)c2cc(F)ccc2/C1=C\c1ccc([S+](C)[O-])cc1` (stereo not shown) [sulindac], the half-lives entry in series [1] was “over ten hours to three days”. Take `Cc1ccc(C(=O)c2ccc(CC(=O)O)n2C)cc1` [tolmetin]: the blood level half-lives result in series [1] was “under four”. Prostaglandin E₂: the “increase in the major gastric surface protective surfactant” value with rat stomach mucosa is 2-6 fold.

These data come from EP0249561B1, “Compositions using liposome-encapsulated non-steroidal anti-inflammatory drugs” (THE LIPOSOME COMPANY, INC., priority 1986, dated 1987).
